According to the NIST ThermoML archive (doi:10.1016/j.jct.2018.03.025):
± gives the expanded uncertainty stated by the source.

Legend:
[1] = refractive index (Na D-line) (dimensionless); wn = mass fraction of the nth substance listed; details: 298.2 K; 101.3 kPa; Liquid; Standard Abbe refractometry; w1 = 0.85
[2] = wn = mass fraction of the nth substance listed; details: 298.2 K; 101.3 kPa; Liquid; Vibrating tube method; w1 = 0.85
[3] = refractive index (Na D-line) (dimensionless); details: 298.2 K; 101.33 kPa; Liquid; Standard Abbe refractometry
[4] = 298.2 K; 101.33 kPa; Liquid; Vibrating tube method

refractive index [1] | mass density [2] [kg/m3] | refractive index [3] | mass density [4] [kg/m3] | Compound
1.432 ± 0.001 | 1682.7 ± 1.1 |  |  | O=P(O)(O)O [phosphoric acid] + O
 |  | 1.3325 ± 0.001 |  | O [water]
 |  | 1.3991 ± 0.0011 | 872.02 ± 1.2 | CCCCCOC(C)=O [pentyl ethanoate]
 |  | 1.383 ± 0.0011 | 882.26 ± 1.2 | CCCOC(C)=O [propyl ethanoate]
